# Reference: patent publication US7807439B2, “Staphylococcus aureus-specific detection media and identifying and/or counting method using same” (Biomerieux S.A., priority 2001, dated 2010)
# What was measured:
# [1] = system: coagulase-negative strains; assay: Experiment 5: fluorescent substrates, summary for coagulase-negative strains; format: cell-based
# Description: (§1) The media below were prepared in the base of the medium described in experiment 1, but in the absence of agar and in the presence of a fluorescent substrate instead of a chromogenic substrate. […] The various liquid media are distributed into the cupules of a support the size of a bank card, specific for the automated VITEK 2 (trademark) system of the company bioMérieux. […] The results, given in table 9 below, represent the incubation time, in hours, required to obtain the maximum level of fluorescence which can be measured by the device: […]
# [2] = system: coagulase-positive staphylococcal strains; assay: Experiment 5: fluorescent substrates, summary for coagulase-positive strains; format: cell-based, Staphylococcus aureus and Staphylococcus intermedius
# Description: as §1
# [3] = system: S. intermedius 075; assay: Experiment 5: fluorescent substrates in liquid medium, VITEK 2 reading; format: cell-based, Staphylococcus intermedius; conditions: substrate 200 mg/l, read over 19 hours
# Description: as §1
# [4] = system: S. saprophyticus 030; assay: as above; format: cell-based, Staphylococcus saprophyticus; conditions: substrate 200 mg/l, read over 19 hours
# Description: as §1
# [5] = system: S. epidermidis 009; assay: as above; format: cell-based, Staphylococcus epidermidis; conditions: substrate 200 mg/l, read over 19 hours
# Description: as §1
# [6] = system: S. haemolyticus 131; assay: as above; format: cell-based, Staphylococcus haemolyticus; conditions: substrate 200 mg/l, read over 19 hours
# Description: as §1
# [7] = system: S. xylosus 008; assay: as above; format: cell-based, Staphylococcus xylosus; conditions: substrate 200 mg/l, read over 19 hours
# Description: as §1
# [8] = system: S. aureus 276; assay: as above; format: cell-based, Staphylococcus aureus; conditions: substrate 200 mg/l, read over 19 hours
# Description: as §1
# [9] = system: S. aureus 070; assay: as above; format: cell-based, Staphylococcus aureus; conditions: substrate 200 mg/l, read over 19 hours
# Description: as §1
# [10] = system: Staphylococcal species; assay: Experiment 6: Staphylococcal growth in the presence of inhibitors; format: cell-based, Staphylococcus; conditions: inhibitors added to the medium, concentrations per mixture
# [11] = system: α-glucosidase; assay: Experiment 6: detection of α-glucosidase activity in the presence of inhibitors; format: cell-based, Staphylococcus; conditions: inhibitors added to the medium, concentrations per mixture
Molecule,incubation time to obtain a maximum level of fluorescence [1] [h],incubation time to obtain a maximum level of fluorescence [2] [h],hours of incubation required to obtain the maximum level of fluorescence [3] [h],hours of incubation required to obtain the maximum level of fluorescence [4] [h],hours of incubation required to obtain the maximum level of fluorescence [5] [h],hours of incubation required to obtain the maximum level of fluorescence [6] [h],hours of incubation required to obtain the maximum level of fluorescence [7] [h],hours of incubation required to obtain the maximum level of fluorescence [8] [h],hours of incubation required to obtain the maximum level of fluorescence [9] [h],Staphylococcal growth [10],effect on detection/expression of α-glucosidase [11]
"Cc1cc(=O)oc2cc(O[C@H]3O[C@H](CO)[C@@H](O)[C@H](O)[C@H]3O)ccc12 [4-MU-α-GLU, 4-methylumbelliferyl-α-D-glucoside]",> 10,< 8,5,19,19,19,11,7,8,–,–
"Cc1cc(=O)oc2cc(O[C@@H]3O[C@H](C(=O)O)[C@@H](O)[C@H](O)[C@H]3O)ccc12 [4-MU-β-GUR, 4-methylumbelliferyl-β-D-glucuronide]",–,–,2,19,4,19,5,3,3,–,–
"[Cl-].[Li+] [LiCl, lithium chloride]",–,–,–,–,–,–,–,–,–,decreases,–
C[C@H]1[C@H](NC(=O)/C(=N\OC(C)(C)C(=O)O)c2csc(N)n2)C(=O)N1S(=O)(=O)O [aztreonam],–,–,–,–,–,–,–,–,–,does not disturb the bacterial growth,very slightly decreased
colistin,–,–,–,–,–,–,–,–,–,virtually no effect,–
